Columns and labels:
MTT cytotoxicity testing = settings: human, HEP G2 cells (human liver epithelial cells)
Method: (§1) For the scaffold to have translational significance, it must be non-toxic to human cells. Accordingly, an initial assessment of toxicity was performed using human liver epithelial (HEP G2) cells via a 3-(4,5-dimethylthiazol-2-yl)-2,5-diphenyltetrazolium bromide (MTT) assay in the presence of up to 400 µM of each analog. […] Viability of 70% was used as the cut-off criteria for toxicity (Figure 4, dashed line), according to ISO guidelines, as described in Materials and Methods.
(§2) Human liver epithelial cells (HEP G2) were cultured in Dulbecco’s Modified Eagle Medium (DMEM; Fisher Scientific, Hampton, NH) supplemented with 10% heat inactivated fetal bovine serum (FBS; Corning Life Sciences) and 1% penicillin/streptomycin (Thermofisher Scientific). Cells were incubated at 37 °C with 5% CO2 in Nunc (Roskilde, Denmark) tissue culture flasks. Cells were grown in monolayers until exceeding 70% confluency, removed with 0.25% trypsin (Fisher Scientific), resuspended in fresh medium, and used to seed approximately 2.5 × 10^5 cells/mL into each well of a 96 well tissue culture microplate (Nunc) containing 200 µL of fresh medium. Cytotoxicity testing was conducted according to the guidelines of the International Organization for Standardization (ISO) 10993-5:2009. After 24 h of incubation, the cell media was removed, and adherent cells were washed with 1× phosphate buffered saline (PBS). Cell media was supplemented with 5% per volume of compound at final concentrations from 12.5 µM to 400 µM and incubated 20–24 h at 37 °C with 5% CO2. After incubation, medium supplemented with compound was removed from the wells and replaced with 100 µL of fresh culture medium. Then, 10 µL of 12 mM (3-(4,5-dimethylthiazol-2-yl)-2,5-diphenyltetrazolium bromide (MTT) stock reagent (CyQUANT MTT cell proliferation kit; Thermofisher Scientific) was added to each well. After labeling the cells with the MTT reagent, all but 25 µL of medium was removed from the wells, and 50 µL of DMSO was added to each well and mixed thoroughly and cells were incubated at 37 °C with 5% CO2 for 10 min. After incubation, wells were mixed again and using a SPECTRAmax5 microplate reader, absorbance was read at 540 nm. Cells were treated with 125 µg/mL mitomycin C (Fisher Scientific) to serve as a positive control and 2% DMSO as a negative control. […] All compounds were tested in two independent experiments in triplicate and cell viability was expressed as a percent of the negative control.

[1] = tested on: Human liver epithelial cells (HEP G2); test: MTT cytotoxicity testing; settings: for HEP G2 toxicity against 70% viability cut-off (in words): concentrations lower than 50 µM
Method: as §1, §2

[2] = tested on: S. aureus clinical isolate USA300; test: Murine corneal infection (keratitis) model; format: in vivo, Staphylococcus aureus; settings: BALB/c mice, 50 µM topical 5 µL every 6 h for 48 h; not statistically different (t-test)
Method: Corneal infections were induced by inoculating corneal scratches with S. aureus, eyes were treated with RNP0012 6 h later and every 6 h thereafter for 48 h and bacterial burden was enumerated.
In vivo efficacy studies utilizing a murine model of corneal S. aureus infection were performed as previously described. Female BALB/c mice four to six weeks of age were acquired from Charles River ([…], MA, USA) and housed according to the approved University of Rochester Medical Center Council on Animal Research (UCAR) protocol. S. aureus clinical isolate USA300 was grown overnight on both MH agar and MH broth at 37 °C. Broth cultures were centrifuged at 2000× g for 10 min at 4 °C and the pellet was resuspended in 1× sterile PBS in a volume equivalent to the starting volume. The mice were anesthetized with 100 mg kg^−1 ketamine (Par Pharmaceutica; Chestnut Ridge, NY, USA) and 10 mg kg^−1 xylazine (Akorn, Inc.; Lake Forest, IL, USA) and 0.5% proparacaine (Akorn, Inc.) was applied to the right eye of each mouse. Excess proparacaine was blotted from the ocular surface. Using a 27-gauge needle, inoculated with a single colony of S. aureus USA300, three 2 mm scratches were made across the right cornea. […] The animals were euthanized after 48 h and whole eyes were excised, homogenized, and plated to quantitate viable S. aureus colonies present. […]

SMILES | viability at 50 µM (MTT cytotoxicity testing) [%] | Therapeutic index ([1]; human) | Fold of the 50 µM cytotoxicity dose above the MIC against S. aureus ([1]; human, 50 µM) [fold] | CFU reduction in comparison to vehicle treated animals [2] [log CFU] | HEP G2 toxicity against 70% viability cut-off (in words) [1]
O=C(Nc1ccc(C(F)(F)F)cc1)c1c(NC(=O)C(F)(F)F)sc2c1CCCCC2 [RNP0012] | 68 | ~ 260 | 263 | 1.2 | 
O=C(Nc1cccc(F)c1)c1c(NC(=O)C(F)(F)F)sc2c1CCCCC2 [RNP0008] |  |  |  |  | did not exhibit toxicity that was beyond the 70% cut-off criteria
Cc1cccc(NC(=O)c2c(NC(=O)C(F)(F)F)sc3c2CCCCC3)c1 [RNP0010] |  |  |  |  | did not exhibit toxicity that was beyond the 70% cut-off criteria
O=C(Nc1ccc(F)cc1)c1c(NC(=O)C(F)(F)F)sc2c1CCCCC2 [RNP0009] |  |  |  |  | did not exhibit toxicity that was beyond the 70% cut-off criteria

From paper PMC8066339, “Optimization of 2-Acylaminocycloalkylthiophene Derivatives for Activity against Staphylococcus aureus RnpA” (Antibiotics, 2021)
